Values after ≈ are worked out from the molar mass of the structure shown.
How the values were obtained:
[1] = Protein binding in cynomolgus monkey plasma; type: ADME, cell-free, Macaca fascicularis; conditions: read-out: PPB
Mus musculus [2] = assay: Increase in ApoA1 level in transgenic mouse expressing human ApoA1 at 50 mg/kg administered qd through oral gavage measured after 10 days relative to vehicle-treated control; type: functional
[3] = Oral bioavailability in dog at 2 mg/kg; type: ADME, organism-based, Canis lupus familiaris; conditions: in vivo
[4] = Protein binding in mouse plasma; type: ADME, cell-free; conditions: read-out: PPB (converted)
Syrian golden hamster [5] = assay: Decrease in plasma LDL cholesterol level in high fat-diet fed syrian golden hamster model of dyslipidemia administered qd through oral gavage measured after 21 days by FPLC analysis relative to control; type: functional, organism-based; conditions: Mesocricetus auratus
Syrian golden hamster [6] = assay: Decrease in plasma triglyceride level in high fat-diet fed syrian golden hamster model of dyslipidemia at 1 mg/kg administered qd through oral gavage measured after 21 days by FPLC analysis relative to control; type: functional, Mesocricetus auratus; design: scale not given: the % may be the effect or the level left
Syrian golden hamster [7] = assay: Decrease in liver cholesterol level in high fat-diet fed syrian golden hamster model of dyslipidemia at 3 mg/kg administered qd through oral gavage measured after 21 days by FPLC analysis relative to control; type: functional, Mesocricetus auratus; design: scale not given: the % may be the effect or the level left
Syrian golden hamster [8] = assay: Decrease in liver triglyceride level in high fat-diet fed syrian golden hamster model of dyslipidemia administered qd through oral gavage measured after 21 days by FPLC analysis; type: functional, organism-based; conditions: Mesocricetus auratus
Mus musculus [9] = assay: Increase in ApoA1 level in transgenic mouse expressing human ApoA1 at 10 mg/kg administered qd through oral gavage measured after 10 days relative to vehicle-treated control; type: functional
Cytochrome P450 2C9 = Cytochrome P450 2C9 (Homo sapiens, UniProt P11712); assay: Inhibition of CYP2C9 in human TC5 cells; type: ADME, cell-based
Cytochrome P450 2C9, sequence (P11712 whole entry): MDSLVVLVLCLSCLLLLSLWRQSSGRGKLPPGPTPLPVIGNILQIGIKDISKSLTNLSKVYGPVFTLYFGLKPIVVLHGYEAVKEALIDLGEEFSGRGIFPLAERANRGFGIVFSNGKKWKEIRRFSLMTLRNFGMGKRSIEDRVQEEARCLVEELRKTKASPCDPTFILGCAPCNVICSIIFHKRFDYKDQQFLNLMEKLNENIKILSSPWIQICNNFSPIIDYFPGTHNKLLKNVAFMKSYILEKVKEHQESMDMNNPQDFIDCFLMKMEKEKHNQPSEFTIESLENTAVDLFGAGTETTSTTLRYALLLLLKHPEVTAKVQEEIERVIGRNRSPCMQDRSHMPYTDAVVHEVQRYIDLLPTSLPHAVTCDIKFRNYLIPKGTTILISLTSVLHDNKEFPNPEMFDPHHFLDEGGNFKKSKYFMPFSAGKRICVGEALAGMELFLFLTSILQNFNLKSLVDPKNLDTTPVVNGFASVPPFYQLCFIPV

[10] = AUC (0 to 8 hrs) in dog at 2 mg/kg, po; type: ADME, organism-based, Canis lupus familiaris; design: dose 2 mg/kg, time < 8 hr, route oral; conditions: in vivo
Syrian golden hamster [11] = assay: Decrease in liver cholesterol level in high fat-diet fed syrian golden hamster model of dyslipidemia at 1 mg/kg administered qd through oral gavage measured after 21 days by FPLC analysis relative to control; type: functional, Mesocricetus auratus; design: scale not given: the % may be the effect or the level left
[12] = target: T1, Peroxisome proliferator-activated receptor gamma (Homo sapiens, UniProt P37231); assay: Binding affinity to human GST-tagged PPAR-gamma LBD expressed in Escherichia coli BL21 after 30 mins in presence of fluorescein ligand FLA-A by fluorescence polarization assay
T1 sequence (P37231 whole entry): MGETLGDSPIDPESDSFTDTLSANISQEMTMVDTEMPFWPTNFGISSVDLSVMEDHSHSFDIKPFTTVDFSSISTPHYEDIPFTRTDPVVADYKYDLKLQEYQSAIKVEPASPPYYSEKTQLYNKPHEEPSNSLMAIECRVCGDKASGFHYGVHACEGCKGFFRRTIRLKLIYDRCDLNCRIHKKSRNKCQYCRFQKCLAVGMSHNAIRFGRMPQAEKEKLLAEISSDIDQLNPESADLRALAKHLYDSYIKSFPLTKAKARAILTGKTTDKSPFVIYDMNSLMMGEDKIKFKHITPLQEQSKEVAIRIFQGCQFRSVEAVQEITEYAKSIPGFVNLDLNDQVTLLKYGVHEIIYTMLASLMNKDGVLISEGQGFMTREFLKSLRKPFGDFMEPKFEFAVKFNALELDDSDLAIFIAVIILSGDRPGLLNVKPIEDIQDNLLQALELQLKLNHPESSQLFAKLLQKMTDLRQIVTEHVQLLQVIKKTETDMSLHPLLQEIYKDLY

[13] = Half life in dog at 1 mg/kg, iv; type: ADME, organism-based, Canis lupus familiaris; conditions: in vivo
[14] = Half life in Balb/c mouse at 5 mg/kg, iv; type: ADME, organism-based; conditions: in vivo
Cytochrome P450 2B6 = Cytochrome P450 2B6 (Homo sapiens, UniProt P20813); assay: Inhibition of CYP2B6 (unknown origin); type: ADME
Cytochrome P450 2B6, sequence (P20813 whole entry): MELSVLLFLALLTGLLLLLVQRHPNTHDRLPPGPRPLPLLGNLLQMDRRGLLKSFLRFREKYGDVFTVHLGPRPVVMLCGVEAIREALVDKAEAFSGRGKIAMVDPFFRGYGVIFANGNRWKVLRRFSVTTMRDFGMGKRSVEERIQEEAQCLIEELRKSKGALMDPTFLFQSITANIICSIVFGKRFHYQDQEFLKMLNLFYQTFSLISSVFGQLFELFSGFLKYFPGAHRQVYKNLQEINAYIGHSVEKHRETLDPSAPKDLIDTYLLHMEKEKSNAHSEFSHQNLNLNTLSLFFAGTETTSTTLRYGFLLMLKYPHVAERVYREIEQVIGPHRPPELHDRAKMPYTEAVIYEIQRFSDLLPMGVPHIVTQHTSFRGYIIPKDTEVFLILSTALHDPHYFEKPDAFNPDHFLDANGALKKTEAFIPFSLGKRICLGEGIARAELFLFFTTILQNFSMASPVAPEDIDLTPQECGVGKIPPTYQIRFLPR

Cytochrome P450 2D6 [15] = target: T2, Cytochrome P450 2D6 (Homo sapiens, UniProt P10635); assay: Inhibition of CYP2D6 (unknown origin); type: ADME
T2 sequence (P10635 whole entry): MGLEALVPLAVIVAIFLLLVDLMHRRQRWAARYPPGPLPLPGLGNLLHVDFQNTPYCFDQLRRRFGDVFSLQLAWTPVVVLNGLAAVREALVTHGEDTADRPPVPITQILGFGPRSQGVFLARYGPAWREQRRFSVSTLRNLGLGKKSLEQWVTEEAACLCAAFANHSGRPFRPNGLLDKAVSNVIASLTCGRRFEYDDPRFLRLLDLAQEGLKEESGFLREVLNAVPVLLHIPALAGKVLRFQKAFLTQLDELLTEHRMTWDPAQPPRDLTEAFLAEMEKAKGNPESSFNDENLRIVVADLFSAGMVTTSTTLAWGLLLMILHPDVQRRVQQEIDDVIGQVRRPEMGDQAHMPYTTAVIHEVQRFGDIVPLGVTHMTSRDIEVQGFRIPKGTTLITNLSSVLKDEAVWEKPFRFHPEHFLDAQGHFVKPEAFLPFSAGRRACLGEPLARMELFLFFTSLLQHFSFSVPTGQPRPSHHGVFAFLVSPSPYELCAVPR

hERG (KCNH2) = hERG (KCNH2) (Homo sapiens, UniProt Q12809); assay: Inhibition of human ERG at 30 uM by patch-clamp method
hERG (KCNH2), sequence (Q12809 whole entry): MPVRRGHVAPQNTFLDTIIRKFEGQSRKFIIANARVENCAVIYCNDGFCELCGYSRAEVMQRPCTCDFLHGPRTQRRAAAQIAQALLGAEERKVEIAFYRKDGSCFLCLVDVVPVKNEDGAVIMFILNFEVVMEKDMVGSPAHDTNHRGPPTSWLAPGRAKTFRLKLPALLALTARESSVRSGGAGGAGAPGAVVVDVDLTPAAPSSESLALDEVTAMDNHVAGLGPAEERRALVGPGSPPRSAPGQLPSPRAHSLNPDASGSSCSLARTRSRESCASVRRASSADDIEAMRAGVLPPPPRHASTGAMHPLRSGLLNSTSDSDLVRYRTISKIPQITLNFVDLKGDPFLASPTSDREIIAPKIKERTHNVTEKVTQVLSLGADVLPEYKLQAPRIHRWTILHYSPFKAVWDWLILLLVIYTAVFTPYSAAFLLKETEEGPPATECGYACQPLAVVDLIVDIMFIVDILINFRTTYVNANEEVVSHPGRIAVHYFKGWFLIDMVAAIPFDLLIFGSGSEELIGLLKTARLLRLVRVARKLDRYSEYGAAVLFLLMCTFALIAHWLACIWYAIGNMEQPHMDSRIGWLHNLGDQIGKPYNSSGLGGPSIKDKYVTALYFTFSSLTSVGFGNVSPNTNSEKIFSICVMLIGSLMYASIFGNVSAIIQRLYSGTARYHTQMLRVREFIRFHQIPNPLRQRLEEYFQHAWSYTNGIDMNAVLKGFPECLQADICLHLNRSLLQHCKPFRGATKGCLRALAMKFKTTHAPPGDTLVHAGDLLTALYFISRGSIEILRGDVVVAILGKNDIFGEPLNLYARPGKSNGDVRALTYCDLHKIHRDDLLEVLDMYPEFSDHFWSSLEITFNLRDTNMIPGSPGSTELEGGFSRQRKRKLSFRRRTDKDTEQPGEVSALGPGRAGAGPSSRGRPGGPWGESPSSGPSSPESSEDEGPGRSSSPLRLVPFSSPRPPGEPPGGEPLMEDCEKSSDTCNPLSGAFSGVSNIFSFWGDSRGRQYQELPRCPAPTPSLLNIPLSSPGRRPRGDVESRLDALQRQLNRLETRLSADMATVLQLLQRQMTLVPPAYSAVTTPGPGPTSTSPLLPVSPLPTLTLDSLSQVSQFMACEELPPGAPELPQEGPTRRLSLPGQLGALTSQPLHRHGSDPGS

[16] = AUC (0 to 8 hrs) in cynomolgus monkey at 2 mg/kg, po; type: ADME, organism-based, Macaca fascicularis; design: time < 8 hr, dose 2 mg/kg, route oral; conditions: in vivo
[17] = Volume of distribution at steady state in Balb/c mouse at 5 mg/kg, iv; type: ADME, organism-based; conditions: in vivo, read-out: Vdss
Syrian golden hamster [18] = assay: Decrease in liver cholesterol level in high fat-diet fed syrian golden hamster model of dyslipidemia at 10 mg/kg administered qd through oral gavage measured after 21 days by FPLC analysis relative to control; type: functional, Mesocricetus auratus; design: scale not given: the % may be the effect or the level left
Cytochrome P450 3A4 = Cytochrome P450 3A4 (Homo sapiens, UniProt P08684); assay: Inhibition of CYP3A4 (unknown origin); type: ADME
Cytochrome P450 3A4, sequence (P08684 whole entry): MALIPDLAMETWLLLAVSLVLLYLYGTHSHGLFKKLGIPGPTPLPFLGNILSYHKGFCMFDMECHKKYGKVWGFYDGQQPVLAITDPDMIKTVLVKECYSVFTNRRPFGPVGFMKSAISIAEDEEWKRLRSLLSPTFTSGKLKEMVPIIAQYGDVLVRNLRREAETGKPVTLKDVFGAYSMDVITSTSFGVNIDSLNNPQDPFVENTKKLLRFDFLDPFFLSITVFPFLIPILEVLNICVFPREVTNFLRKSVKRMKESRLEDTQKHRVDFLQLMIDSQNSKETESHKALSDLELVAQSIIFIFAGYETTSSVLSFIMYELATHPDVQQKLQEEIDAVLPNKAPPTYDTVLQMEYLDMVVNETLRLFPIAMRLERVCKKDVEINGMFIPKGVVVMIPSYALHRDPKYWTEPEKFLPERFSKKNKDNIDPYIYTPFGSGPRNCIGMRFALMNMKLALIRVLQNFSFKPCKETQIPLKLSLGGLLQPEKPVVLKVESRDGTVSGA

Mus musculus [19] = assay: Increase in HDL cholesterol level in transgenic mouse expressing human ApoA1 at 3 mg/kg administered qd through oral gavage measured after 10 days relative to vehicle control; type: functional
[20] = Protein binding in dog plasma; type: ADME, cell-free, Canis lupus familiaris; conditions: read-out: PPB (converted)
Syrian golden hamster [21] = assay: Decrease in liver triglyceride level in high fat-diet fed syrian golden hamster model of dyslipidemia at 1 mg/kg administered qd through oral gavage measured after 21 days by FPLC analysis relative to control; type: functional, Mesocricetus auratus; design: scale not given: the % may be the effect or the level left
Cytochrome P450 2D6 [22] = target: T2, Cytochrome P450 2D6; assay: Inhibition of CYP2D6 in human TC5 cells; type: ADME, cell-based
[23] = target: Nuclear receptor subfamily 1 group I member 2 (Homo sapiens, UniProt O75469); assay: Activation of PXR (unknown origin); type: ADME
Nuclear receptor subfamily 1 group I member 2, sequence (O75469 whole entry): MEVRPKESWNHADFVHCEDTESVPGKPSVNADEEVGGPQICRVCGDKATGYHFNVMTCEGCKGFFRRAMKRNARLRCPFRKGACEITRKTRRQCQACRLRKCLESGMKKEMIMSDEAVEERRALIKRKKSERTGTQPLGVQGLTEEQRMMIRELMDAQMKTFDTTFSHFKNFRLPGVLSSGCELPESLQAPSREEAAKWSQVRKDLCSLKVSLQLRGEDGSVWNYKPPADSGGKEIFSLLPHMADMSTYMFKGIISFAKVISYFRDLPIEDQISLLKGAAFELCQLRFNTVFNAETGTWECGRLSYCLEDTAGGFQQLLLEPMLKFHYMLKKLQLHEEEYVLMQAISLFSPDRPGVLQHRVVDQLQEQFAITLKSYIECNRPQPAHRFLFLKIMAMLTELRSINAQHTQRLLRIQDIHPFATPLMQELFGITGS

Salmonella typhimurium = assay: Genotoxicity in Salmonella typhimurium TA100 up to 5000 ug by Ames test; type: toxicity, organism-based; conditions: salmonella enterica subsp. enterica serovar typhimurium
[24] = Half life in Sprague-Dawley rat at 4 mg/kg, iv; type: ADME, organism-based; conditions: in vivo
Glucocorticoid receptor = Glucocorticoid receptor (Homo sapiens, UniProt P04150); assay: Agonist activity at human GR by transactivation assay
Glucocorticoid receptor, sequence (P04150 whole entry): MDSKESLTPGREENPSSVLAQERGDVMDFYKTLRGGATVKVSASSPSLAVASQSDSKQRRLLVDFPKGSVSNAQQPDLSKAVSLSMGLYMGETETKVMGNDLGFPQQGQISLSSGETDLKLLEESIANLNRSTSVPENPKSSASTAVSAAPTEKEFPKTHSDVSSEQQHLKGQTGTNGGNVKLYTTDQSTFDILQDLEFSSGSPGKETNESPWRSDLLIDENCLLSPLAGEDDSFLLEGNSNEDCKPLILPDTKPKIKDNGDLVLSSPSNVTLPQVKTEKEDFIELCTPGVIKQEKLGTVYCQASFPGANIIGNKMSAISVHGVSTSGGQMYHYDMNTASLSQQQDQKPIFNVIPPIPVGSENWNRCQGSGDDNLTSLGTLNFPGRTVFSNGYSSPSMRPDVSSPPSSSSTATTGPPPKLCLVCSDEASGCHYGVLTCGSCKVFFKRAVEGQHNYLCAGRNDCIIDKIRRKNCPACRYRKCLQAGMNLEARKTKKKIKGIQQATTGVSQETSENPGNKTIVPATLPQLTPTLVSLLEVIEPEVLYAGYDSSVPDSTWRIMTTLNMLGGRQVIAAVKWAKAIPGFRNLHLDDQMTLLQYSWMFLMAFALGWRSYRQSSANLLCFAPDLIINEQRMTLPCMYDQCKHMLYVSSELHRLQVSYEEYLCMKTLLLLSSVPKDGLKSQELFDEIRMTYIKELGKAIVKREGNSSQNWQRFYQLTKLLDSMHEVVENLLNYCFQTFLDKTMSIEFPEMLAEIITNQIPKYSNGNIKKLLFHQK

CHO = assay: Clastogenecity in CHO cells; type: ADME, cell-based, Cricetulus griseus; conditions: chinese hamster
Syrian golden hamster [25] = assay: Decrease in plasma LDL cholesterol level in high fat-diet fed syrian golden hamster model of dyslipidemia at 10 mg/kg administered qd through oral gavage measured after 21 days by FPLC analysis relative to control; type: functional, Mesocricetus auratus; design: scale not given: the % may be the effect or the level left
[26] = Oral bioavailability in cynomolgus monkey at 2 mg/kg; type: ADME, organism-based, Macaca fascicularis; conditions: in vivo
[27] = Cmax in Sprague-Dawley rat at 8 mg/kg, po; type: ADME, organism-based; design: dose 8 mg/kg, route oral; conditions: in vivo
HEK293 = assay: Selectivity ratio of EC50 for Gal4-tagged human PPAR-gamma expressed in HEK cells to EC50 for Gal4-tagged human PPAR-alpha expressed in HEK cells; type: cell-based
[28] = Volume of distribution at steady state in cynomolgus monkey at 1 mg/kg, iv; type: ADME, organism-based, Macaca fascicularis; conditions: in vivo, read-out: Vdss
[29] = AUC (0 to 8 hrs) in dog at 1 mg/kg, iv; type: ADME, organism-based, Canis lupus familiaris; design: dose 1 mg/kg, time < 8 hr, route intravenous; conditions: in vivo
Mus musculus [30] = assay: Increase in HDL cholesterol level in transgenic mouse expressing human ApoA1 at 50 mg/kg administered qd through oral gavage measured after 10 days relative to vehicle control; type: functional
[31] = Plasma clearance in Sprague-Dawley rat at 4 mg/kg, iv; type: ADME, organism-based
[32] = Cmax in Balb/c mouse at 10 mg/kg, po; type: ADME, organism-based; design: dose 10 mg/kg, route oral; conditions: in vivo
Liver X receptor = Liver X receptor (Homo sapiens, UniProt Q13133+P55055); assay: Agonist activity at human LXR by transactivation assay; type: protein assay
[33] = Aqueous solubility of the compound at pH 7.2; type: physicochemical; conditions: buffer

fraction unbound [1]: 0.01
bioavailability [3]: 59%
fraction unbound [4]: 0.002
AUC(0-t) at 8 h [10]: 4 µM·h
IC50 [12]: > 98.4 µM
half-life [13]: 5.5 h
half-life [14]: 1.8 h
IC50 (Cytochrome P450 2B6): > 40 µM
IC50 (Cytochrome P450 2D6 [15]): > 40 µM
AUC(0-t) at 8 h [16]: 8.5 µM·h
Vd [17]: 0.6 L/kg
IC50 (Cytochrome P450 3A4): > 40 µM
fraction unbound [20]: 0.005
EC60 [23]: > 50 µM
half-life [24]: 3.3 h
EC50 (Glucocorticoid receptor): > 25 µM
bioavailability [26]: 65%
Cmax [27]: 14.9 µM
Vd [28]: 3.9 L/kg
AUC(0-t) at 8 h [29]: 3.5 µM·h
clearance [31]: 15.3 mL/min/kg
Cmax [32]: 22.7 µM
EC50 (Liver X receptor): > 25 µM
solubility [33]: 367 µg/mL (≈ 793 µM)
Compound: COC(=O)N(CC(=O)O)Cc1cc(OCc2nc(-c3ccc(Cl)cc3)oc2C)ccc1F
Activity (Mus musculus [2]): 747%
Activity (Syrian golden hamster [5]): Dose-dependent effect
Activity (Syrian golden hamster [6]): 50%
Activity (Syrian golden hamster [7]): 56.8%
Activity (Syrian golden hamster [8]): Dose-dependent effect
Activity (Mus musculus [9]): 400%
IC50 (Cytochrome P450 2C9): > 150 µM
Activity (Syrian golden hamster [11]): 13%
inhibition at 30 µM (hERG (KCNH2)): 4%
Activity (Syrian golden hamster [18]): 67.5%
Activity (Mus musculus [19]): 16%
Activity (Syrian golden hamster [21]): 18.7%
IC50 (Cytochrome P450 2D6 [22]): > 150 µM
Activity (Salmonella typhimurium): Non-toxic
Activity (CHO): Non-toxic
Activity (Syrian golden hamster [25]): 87%
Ratio EC50 (HEK293): 1130
Activity (Mus musculus [30]): 109%
